These results are taken from publication PMC3282769 (PLoS ONE, 2012).

The structures appear in SMILES notation.

For experiment [1], the target named is T1, truncated PTC (PTC lacking the C-terminal helix 13) (Enterococcus faecalis, UniProt Q837U7).
T1 construct: gene ptcA
In words: X-ray crystal structure, […] Å. It counts as binding. Conditions: bisubstrate analogue in active site; pH 7.5.

The target in experiment [2] is T2, PTC (putrescine transcarbamylase) (Enterococcus faecalis, UniProt Q837U7).
T2 construct: gene ptcA
In words: X-ray crystal structure, […] Å. To be noted: bisubstrate analogue in active site; pH 5.5. It counts as binding.

The target of experiment [3] is T3, OTC (ornithine transcarbamylase) (Enterococcus faecalis, UniProt Q839Q5).
T3 construct: gene arcB
T3 sequence (Q839Q5 1-339): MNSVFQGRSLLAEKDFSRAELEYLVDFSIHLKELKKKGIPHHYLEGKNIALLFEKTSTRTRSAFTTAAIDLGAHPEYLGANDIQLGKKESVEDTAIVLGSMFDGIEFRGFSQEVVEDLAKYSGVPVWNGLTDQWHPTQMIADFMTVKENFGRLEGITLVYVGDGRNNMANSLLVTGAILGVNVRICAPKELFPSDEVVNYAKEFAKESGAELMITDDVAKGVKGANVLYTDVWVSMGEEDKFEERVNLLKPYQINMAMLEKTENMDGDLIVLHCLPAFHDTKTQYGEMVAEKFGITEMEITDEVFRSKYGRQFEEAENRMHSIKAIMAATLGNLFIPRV
Kind of experiment: citrulline production, approach to equilibrium; turnover only. The experiment is classed as biochemical. To be noted: 10 mM ornithine, 10 mM carbamylphosphate, 0.1 M Tris-HCl pH 8.5, 37°C.

Experiment [4] has as its target T2, PTC (putrescine transcarbamylase). In words: X-ray crystal structure, […] Å. It counts as binding. Conditions: bisubstrate analogue in active site; pH 5.5. This is another data set of the same source.
For experiment [5] the target is unchanged. In words: inhibition of transcarbamylase activity, PAPU titration. The experiment is classed as biochemical. Conditions: putrescine or ornithine as substrate (one common curve); bisubstrate analogue inhibitor.

T2 sequence (Q837U7 whole entry): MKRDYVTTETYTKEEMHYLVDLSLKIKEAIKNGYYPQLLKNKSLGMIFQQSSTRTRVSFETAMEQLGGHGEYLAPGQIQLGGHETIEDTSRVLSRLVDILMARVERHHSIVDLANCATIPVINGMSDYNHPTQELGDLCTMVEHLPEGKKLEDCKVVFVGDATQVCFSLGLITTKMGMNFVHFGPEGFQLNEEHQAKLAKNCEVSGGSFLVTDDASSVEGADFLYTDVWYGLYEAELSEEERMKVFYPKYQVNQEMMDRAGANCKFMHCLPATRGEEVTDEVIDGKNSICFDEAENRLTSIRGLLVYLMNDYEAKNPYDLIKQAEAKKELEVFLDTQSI
T1 sequence (Q837U7 1-317): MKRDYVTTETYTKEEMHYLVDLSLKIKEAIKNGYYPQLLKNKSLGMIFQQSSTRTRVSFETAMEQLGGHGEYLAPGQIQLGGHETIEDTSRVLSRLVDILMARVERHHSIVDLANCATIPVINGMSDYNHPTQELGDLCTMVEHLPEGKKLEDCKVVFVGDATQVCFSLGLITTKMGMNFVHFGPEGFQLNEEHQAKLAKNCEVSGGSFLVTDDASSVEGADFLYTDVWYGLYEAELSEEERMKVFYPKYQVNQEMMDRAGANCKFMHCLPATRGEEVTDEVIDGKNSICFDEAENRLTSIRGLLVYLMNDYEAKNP

For `N[C@@H](CCCNC(=O)CP(=O)(O)O)C(=O)O` [PALO, δ-N-(phosphonoacetyl)-L-ornithine], the “X-ray crystal structure, 1.59 Å” value in experiment [1] is 4A8H, 4A8P and 4A8T for PTC-PAPU, PTC-PALO and truncated PTC-PALO, respectively. The “X-ray crystal structure, 2.0 Å” value in experiment [2] is 4A8H, 4A8P and 4A8T for PTC-PAPU, PTC-PALO and truncated PTC-PALO, respectively. In the case of `NCCC[C@H](N)C(=O)O` [L-ornithine], the “citrulline production, approach to equilibrium; turnover only” value in experiment [3] is on record as “carbamylation of ornithine (open symbols) using either OTC (squares) or PTC (triangles)”.

As for `NCCCCNC(=O)CP(=O)(O)O` [PAPU, N-(phosphonoacetyl)-putrescine], in experiment [4], the “X-ray crystal structure, 2.5 Å” value is 4A8H, 4A8P and 4A8T for PTC-PAPU, PTC-PALO and truncated PTC-PALO, respectively. The “% activity” value in experiment [5] is “PAPU inhibited similarly the activities of PTC with putrescine and with ornithine”.
